# Test results taken from US7794957B2, “Eukaryotic genes involved in adult lifespan regulation” (priority 2001, dated 2010).
# “Also recorded” adds a separate entry of the source.
# Test system: C. elegans
# Experiment: Antimycin A treatment, adult lifespan analysis
# Format: in vivo
# Procedure: During a systematic screen of a C. elegans Chromosome I RNAi library it was discovered that animals grown on bacteria expressing atp-3 double-stranded RNA lived much longer than normal (Fraser et al., Nature 408:325 (2000)). Lifespan analysis was conducted at 25° C. as described previously (Kenyon et al., Nature 366:461 (1993)). The pre-fertile period of adulthood was used as t=0 for lifespan analysis. Strains were grown at 20° C. for at least two generations before use in lifespan analysis. Statview 5.0.1 (SAS) software was used for statistical analysis and to determine means and percentiles. In all cases, p values were calculated using the logrank (Mantel-Cox) method.
# OP-50 bacteria were spread onto NG plates and allowed to grow for two days at room temperature. 50 μl of 0.01 M Antimycin A (Sigma) dissolved in 100% ethanol was dropped onto bacterial lawn and allowed to dry overnight in a fume hood at room temperature. […] Animals were transferred to new Antimycin A plates every 4 days. Control worms (ethanol only) were handled in the same manner) (Table 1).
# [1] = fer-15(b26), fem-1(hc17) + 0.1 μM Antimycin A, 25° C.
substance,measurement,setting,value
Antimycin A,effect on lifespan (words),"C. elegans, from hatching through adulthood or regimen not stated, listed as antimycin",substantially increased lifespan; also recorded: increases lifespan
same,effect on lifespan (words),"C. elegans, from hatching through adulthood or regimen not stated, listed as antimycin A",increased lifespan
same,effect on lifespan (words),administration to adult worms,increased lifespan
same,mean lifespan,animals grown in the presence of 0.1 micromolar antimycin in ethanol,21 days
same,75th percentile adult lifespan,[1],25 days
same,Mean ± s.e.m. adult lifespan,[1],20.4 ± 0.7 days
